{"source": "paper PMC7822874", "about": "“Chemoprotective antimalarials identified through quantitative high-throughput screening of Plasmodium blood and liver stage parasites” (Scientific Reports, 2021)", "key": {"[1]": {"system": "luciferase-expressing P. berghei liver stage parasites in HepG2 cells", "experiment": "Inhibition of liver-stage development assay (ILSDA), Method 2 (WRAIR, 96-well)", "assay_type": "cell-based, Plasmodium berghei", "settings": "for Max Resp (signal direction of the dose response): Method 2, Decrease = decreasing P. berghei viability with dose, Increase = increasing signal, Inactive = no dose response; for AC50: Plasmodium berghei, HepG2, Method 2; call rule not given here"}, "[2]": {"system": "Plasmodium falciparum Dd2 asexual blood stage parasites", "experiment": "microbe, parasite or virus in culture", "design": "species or system Plasmodium falciparum Dd2 in human erythrocytes; single determination (one 11-point concentration-response curve)", "settings": "Plasmodium falciparum, DD2, Erythrocyte, 72 h; read-out: AC50"}, "in vitro [3]": {"experiment": "in vitro", "settings": "human, HepG2 cells; n = 1"}, "[4]": {"system": "P. berghei-ANKA-GFP-LucCON liver stage parasites in HepG2-A16-CD81EGFP cells", "experiment": "P. berghei liver stage Pb-Luc assay, Method 1 (UCSD, 1536-well)", "assay_type": "cell-based, Plasmodium berghei", "settings": "Plasmodium berghei, 48 h, average of 2 wells on a 1536 well plate"}, "HepG2-A16-CD81EGFP cells": {"system": "HepG2-A16-CD81EGFP cells", "settings": "average of 2 wells"}, "in vitro [5]": {"experiment": "in vitro", "settings": "human, HepG2-A16-CD81EGFP cells, uninfected"}, "[6]": {"system": "T1, Plasmodium falciparum Dd2-attB (parental line), asexual blood stages", "T1 construct": "Dd2-attB, the isogenic parental line", "experiment": "microbe, parasite or virus in culture", "design": "species or system P. falciparum Dd2-attB in human erythrocytes; SYBR Green-I proliferation assay, Dd2-attB parental line, asexual blood stages", "settings": "Plasmodium falciparum, DD2, Erythrocyte, 72 h, read-out: Calculated / Average Log AC50 (M), mean of replicates, 72 h (converted)"}, "[7]": {"settings": "Hill fit, 50% of maximum activity response, read-out: AC50"}, "[8]": {"settings": "log10 of molar AC50 from Hill fit, read-out: Log AC50 (converted)"}, "[9]": {"settings": "1 uM (compounds provided at 10 mM), column 11, read-out: Pb-Luc (P. berghei liver stage), % of control, lower concentration, first repeat"}, "[10]": {"settings": "1 uM (compounds provided at 10 mM), column 12, read-out: Pb-Luc (P. berghei liver stage), % of control, lower concentration, second repeat"}, "[11]": {"settings": "3 uM (compounds provided at 10 mM), column 8, read-out: Pb-Luc (P. berghei liver stage), % of control, higher concentration, first repeat"}, "[12]": {"settings": "3 uM (compounds provided at 10 mM), column 9, read-out: Pb-Luc (P. berghei liver stage), % of control, higher concentration, second repeat"}}, "note": "Like-named read-outs stand apart in the source and are kept apart here.", "data": [{"smiles": "Cc1nc2ccc(NC(=O)c3cc(S(=O)(=O)N(C)c4ccccc4)ccc3Cl)cc2s1", "note": "[MLS000393823-01]", "values": [{"measurement": "Max Resp (signal direction of the dose response)", "setting": "[1]", "result": "Decrease"}, {"measurement": "AC50", "setting": "[1]; [7]", "result": 0.501, "unit": "µM"}, {"measurement": "AC50", "setting": "[1]; [8]", "result": 0.501, "unit": "µM"}, {"measurement": "AC50", "setting": "[2]", "result": 0.841, "unit": "µM"}, {"measurement": "CC50 at 48 h", "setting": "in vitro [3]", "result": 9.68, "unit": "µM"}, {"measurement": "activity at 1 µM", "setting": "[4]; P. berghei liver stage, 1 µM compound treatment (10 mM stocks), replicate 1, normalized, read-out: PbLuc 1uM growth rep1", "result": 19, "unit": "%"}, {"measurement": "activity at 1 µM", "setting": "[4]; P. berghei liver stage, 1 µM compound treatment (10 mM stocks), replicate 2, normalized, read-out: PbLuc 1uM growth rep2", "result": 15, "unit": "%"}, {"measurement": "activity at 3 µM", "setting": "[4]; P. berghei liver stage, 3 µM compound treatment (10 mM stocks), replicate 1, normalized, read-out: PbLuc 3uM growth rep1", "result": 3.66, "unit": "%"}, {"measurement": "activity at 3 µM", "setting": "[4]; P. berghei liver stage, 3 µM compound treatment (10 mM stocks), replicate 2, normalized, read-out: PbLuc 3uM growth rep2", "result": 5.53, "unit": "%"}, {"measurement": "HepG2 1uM growth rep1", "setting": "HepG2-A16-CD81EGFP cells; HepG2, 1 µM compound treatment (10 mM stocks), replicate 1, normalized", "result": 61, "unit": "%"}, {"measurement": "HepG2 1uM growth rep2", "setting": "HepG2-A16-CD81EGFP cells; HepG2, 1 µM compound treatment (10 mM stocks), replicate 2, normalized", "result": 56, "unit": "%"}, {"measurement": "HepG2 3uM growth rep1", "setting": "HepG2-A16-CD81EGFP cells; HepG2, 3 µM compound treatment (10 mM stocks), replicate 1, normalized", "result": 59, "unit": "%"}, {"measurement": "HepG2 3uM growth rep2", "setting": "HepG2-A16-CD81EGFP cells; HepG2, 3 µM compound treatment (10 mM stocks), replicate 2, normalized", "result": 60, "unit": "%"}]}, {"smiles": "O=C(NC(c1ccccc1)c1cc(Cl)c2cccnc2c1O)c1cccnc1", "note": "(stereo not drawn) [MLS000573359-01]", "values": [{"measurement": "Max Resp (signal direction of the dose response)", "setting": "[1]", "result": "Decrease"}, {"measurement": "AC50", "setting": "[1]; [7]", "result": 1.12, "unit": "µM"}, {"measurement": "AC50", "setting": "[1]; [8]", "result": 1.12, "unit": "µM"}, {"measurement": "AC50", "setting": "[2]", "result": 7.5, "unit": "µM"}, {"measurement": "viability at 48 h, 1 µM", "setting": "in vitro [5]", "result": 119, "unit": "%"}, {"measurement": "viability at 48 h, 3 µM", "setting": "in vitro [5]", "result": 66, "unit": "%"}, {"measurement": "CC50 at 48 h", "setting": "in vitro [3]", "result": 13.7, "unit": "µM"}]}, {"smiles": "O=C(Nc1ccccc1O)c1ccc(NC(=O)C2CC2)cc1", "note": "[MLS001162082-01]", "values": [{"measurement": "Max Resp (signal direction of the dose response)", "setting": "[1]", "result": "Decrease"}, {"measurement": "AC50", "setting": "[1]; [7]", "result": 2.24, "unit": "µM"}, {"measurement": "AC50", "setting": "[1]; [8]", "result": 2.24, "unit": "µM"}, {"measurement": "AC50", "setting": "[2]", "result": 4.73, "unit": "µM"}, {"measurement": "viability at 48 h, 1 µM", "setting": "in vitro [5]", "result": 114, "unit": "%"}, {"measurement": "viability at 48 h, 3 µM", "setting": "in vitro [5]", "result": 108, "unit": "%"}, {"measurement": "CC50 at 48 h", "setting": "in vitro [3]", "result": 10.9, "unit": "µM"}, {"measurement": "activity at 1 µM", "setting": "[4]; [9]", "result": 40, "unit": "%"}, {"measurement": "activity at 1 µM", "setting": "[4]; [10]", "result": 37, "unit": "%"}, {"measurement": "activity at 3 µM", "setting": "[4]; [11]", "result": 10, "unit": "%"}, {"measurement": "activity at 3 µM", "setting": "[4]; [12]", "result": 10, "unit": "%"}]}, {"smiles": "O=c1cc(CSc2ccc(Cl)cc2)nc(-c2ccccn2)[nH]1", "note": "[MLS001166297-01]", "values": [{"measurement": "Max Resp (signal direction of the dose response)", "setting": "[1]", "result": "Inactive"}, {"measurement": "AC50", "setting": "[2]", "result": 5.96, "unit": "µM"}, {"measurement": "viability at 48 h, 1 µM", "setting": "in vitro [5]", "result": 92, "unit": "%"}, {"measurement": "viability at 48 h, 3 µM", "setting": "in vitro [5]", "result": 73, "unit": "%"}, {"measurement": "CC50 at 48 h", "setting": "in vitro [3]", "result": 12.2, "unit": "µM"}, {"measurement": "activity at 1 µM", "setting": "[4]; [9]", "result": 17, "unit": "%"}, {"measurement": "activity at 1 µM", "setting": "[4]; [10]", "result": 15, "unit": "%"}, {"measurement": "activity at 3 µM", "setting": "[4]; [11]", "result": 8, "unit": "%"}, {"measurement": "activity at 3 µM", "setting": "[4]; [12]", "result": 5, "unit": "%"}]}, {"smiles": "Cc1cccc(C)c1Nc1c(-c2cccs2)nc2ncccn12", "note": "[NCGC00107923-03]", "values": [{"measurement": "AC50", "setting": "[6]", "result": "5.03e-07", "unit": "M"}]}, {"smiles": "O=C(Nc1ccccc1F)c1nc([S+](=O)([O-])Cc2ccccc2F)ncc1Cl", "note": "[NCGC00117146-03]", "values": [{"measurement": "AC50", "setting": "[6]", "result": "1.34e-05", "unit": "M"}]}, {"smiles": "COCCn1c(C)cc(O)c(C(c2ccc(OC)cc2)N2CCN(c3ccccc3)CC2)c1=O", "note": "(stereo not drawn) [NCGC00133311-02]", "values": [{"measurement": "AC50", "setting": "[6]", "result": "9.29e-06", "unit": "M"}]}, {"smiles": "OCc1cn(Cc2ccc(O)c3ncccc23)cn1", "note": "[NCGC00183377-01]", "values": [{"measurement": "AC50", "setting": "[6]", "result": "2.08e-05", "unit": "M"}]}, {"smiles": "O=C(O)c1ccnc2c(O)cccc12", "note": "[NCGC00183785-01]", "values": [{"measurement": "AC50", "setting": "[6]", "result": "2e-05", "unit": "M"}]}, {"smiles": "Oc1ccc(CNc2ccccc2Br)c2cccnc12", "note": "[NCGC00184890-01]", "values": [{"measurement": "AC50", "setting": "[6]", "result": "1.78e-05", "unit": "M"}]}, {"smiles": "COC(=O)c1ccc(OC(C)=O)c2ncccc12", "note": "[NCGC00187997-01]", "values": [{"measurement": "AC50", "setting": "[6]", "result": "1.93e-05", "unit": "M"}]}, {"smiles": "O=C(O)c1ccc(O)c2ncc(N3CCCC3)cc12", "note": "[NCGC00189500-01]", "values": [{"measurement": "AC50", "setting": "[6]", "result": "1.72e-05", "unit": "M"}]}]}
